Results on nine molecules are retold here after paper PMC3248459, “A Photocytes-Associated Fatty Acid-Binding Protein from the Light Organ of Adult Taiwanese Firefly, Luciola cerata” (PLoS ONE, 2011).

Where two headings read alike, the source gives them in different places.

Type in all cases: binding
For experiment [1], the target named is T1, recombinant lcFABP (Luciola cerata, UniProt G1FKW0). The experiment can be described thus: ANS fluorescence titration of recombinant lcFABP. The protocol:
(§1) The binding property of lcFABP to fatty acids was analyzed by a fluorescence displacement assay using 1-anilinonaphthalene-8-sulfonic acid (ANS) as fluorescent probe. This assay utilizes ANS's property of emitting intense fluorescence when bind to the hydrophobic region of protein non-covalently. The displacement of ANS from ligand binding site of FABPs by fatty acid or other hydrophobic ligand will result in the reduction of fluorescence. In this way, the apparent inhibition constants (Ki) of fatty acid or hydrophobic ligand to FABPs can be measured, [25]-[27].
Recombinant lcFABP was overexpressed in E. coli cells, and purified by a two-step chromatography for ligand binding assay. […]
Fatty acid binding of recombinant lcFABP was assessed by a competitive displacement assay using fluorescence probe ANS as described previously, [27]. F7000 fluorescence spectrophotometer (Hitachi, Tokyo, Japan) was used for measuring the ANS fluorescence signal at the emission 470 nm following excitation at 375 nm. […] The apparent dissociation constant (Kd) of ANS-lcFABP complex was measured by nonlinear regression analysis of the binding data as described previously. To evaluated the binding of fatty acids to lcFABP, 2 µM lcFABP was pre-equilibrated with 40 µM ANS for 2 min in assay buffer, and then titrated with increasing concentrations of fatty acids until the reduction of fluorescence became saturate. […]

For experiment [2], the target named is T1, recombinant lcFABP. The experiment can be described thus: fluorescence (ANS) displacement assay with fatty acids. The conditions noted are these: for binding strength of lcFABP to ligand (in words): ANS displacement assay, recombinant lcFABP. As to the method: as §1
Recombinant lcFABP was overexpressed in E. coli cells, and purified by a two-step chromatography for ligand binding assay. […] After that, the binding of fatty acid to lcFABP was examined by a competitive displacement titration. […] Conversely, the lcFABP binds moderately to saturated dodecanoic acid (C12:0), monounsaturated oleic acid (C18:1) and polyunsaturated arachidonic acid (C20:4), and poorly to the saturated capric acid (C10:0). These binding studies confirmed that the recombinant lcFABP is a functional protein for fatty acids binding as other reported FABPs, [16].
Fatty acid binding of recombinant lcFABP was assessed by a competitive displacement assay using fluorescence probe ANS as described previously, [27]. F7000 fluorescence spectrophotometer (Hitachi, Tokyo, Japan) was used for measuring the ANS fluorescence signal at the emission 470 nm following excitation at 375 nm. All measurements were carried out in an assay buffer contained 50 mM sodium phosphate, pH 7.5, 140 mM KCl, 5 mM β-ME at 25°C under a dim light. ANS and various fatty acids were prepared freshly in absolute ethanol before used. To evaluate ANS-lcFABP interaction, 2 µM lcFABP in a final volume of 2 ml assay buffer was titrated with 1∼2 ul of ANS from a initial concentration of 0 µM to 80 µM. The apparent dissociation constant (Kd) of ANS-lcFABP complex was measured by nonlinear regression analysis of the binding data as described previously. To evaluated the binding of fatty acids to lcFABP, 2 µM lcFABP was pre-equilibrated with 40 µM ANS for 2 min in assay buffer, and then titrated with increasing concentrations of fatty acids until the reduction of fluorescence became saturate. The apparent inhibition constant (Ki) of each fatty acid to ANS-lcFABP complex was calculated from the displacement data as described previously. All binding experiments were repeated at least three times.

Experiment [3] has as its target T1, recombinant lcFABP. The experiment can be described thus: time-dependent ANS displacement assay with D-luciferin and palmitic acid (Fig. S2). The protocol:
In this study, we also investigated whether lcFABP could bind firefly luciferin using ANS displacement assay (Fig. S2).
Fluorescence change was recorded after successively adding lcFABP (until final concentration become 2 µM at 100 s), D-luciferin (Luc; 1 µM at 200 s and 2 µM at 300 s) or palmitic acid (PA; 1 µM at 200 s and 2 µM at 300 s), and the competitive palmitic acid (2 µM at 400 s) or D-luciferin (2 µM at 400 s) to into the ANS (40 µM) containing buffer using time-dependent model. The results have been subtracted of D-luciferin's intrinsic-fluorescence. All experiments are monitored under a detected wavelength of Ex: 370 nm and Em: 450 nm to reduce the interference of D-luciferin intrinsic-fluorescence to the assay. (TIF) Click here for additional data file.

Setting [4] is: apparent inhibition constant, 2 µM lcFABP pre-equilibrated with 40 µM ANS, pH 7.5, 25°C, at least three repeats, read-out: Ki.

The term Kd denotes the concentration at which binding is half-saturated.

T1 sequence (G1FKW0 entry or part of it): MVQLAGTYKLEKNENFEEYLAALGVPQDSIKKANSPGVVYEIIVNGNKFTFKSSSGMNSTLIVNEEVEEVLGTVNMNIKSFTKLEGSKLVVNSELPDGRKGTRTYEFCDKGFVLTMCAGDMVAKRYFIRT

As for `O=S(=O)(O)c1cccc2cccc(Nc3ccccc3)c12` [ANS, 1-anilinonaphthalene-8-sulfonic acid], the Kd in experiment [1] was 11.2 ± 1.5 µM.
In the case of `CCCCCCCCCC(=O)O` [Capric acid], the “binding strength of lcFABP to ligand (in words)” value (shortened to “binding strength of lcFABP”) in experiment [2] is “poorly”. For the same molecule, the Ki in experiment [2] (setting [4]) was found to be 118 ± 6.24 µM.
`CCCCC/C=C\C/C=C\C/C=C\C/C=C\CCCC(=O)O` [Arachidonic acid]: in experiment [2], the Ki is 1.59 ± 0.16 µM and the “binding strength of lcFABP” value was “moderately”.
For the molecule `CCCCCCCC/C=C\CCCCCCCC(=O)O` [Oleic acid], in experiment [2], the Ki was determined as 1 ± 0.17 µM and the “binding strength of lcFABP” value was “moderately”.
On to `CCCCCCCCCCCCCC(=O)O` [Myristic acid], for which, in experiment [2], the Ki is 0.64 ± 0.14 µM and the “binding strength of lcFABP” value is “strongly”.
With `O=C(O)[C@H]1CSC(c2nc3ccc(O)cc3s2)=N1` [luciferin, D-luciferin], in experiment [3], the “interaction of lcFABP with ligand (in words)” value is listed as “weakly” and the reduction of fluorescence entry is “about 12%”.
On to `CCCCCCCCCCCC(=O)O` [Dodecanoic acid], for which, in experiment [2], the Ki amounted to 1.67 ± 0.15 µM and the “binding strength of lcFABP” value is given as “moderately”.
For the molecule `CCCCCCCCCCCCCCCCCC(=O)O` [Steric acid], in experiment [2], the “binding strength of lcFABP” value is given as “strongly”. The Ki in experiment [2] (setting [4]) is 0.25 ± 0.01 µM.
As to `CCCCCCCCCCCCCCCC(=O)O` [Palmitic acid], in experiment [2], the Ki was 0.55 ± 0.12 µM and the “binding strength of lcFABP” value is “strongly”. Besides, in experiment [3] (2 µM lcFABP, 40 µM ANS, ligand added at 1-2 µM, luciferin intrinsic fluorescence subtracted, Ex 370 nm, Em 450 nm), the reduction of fluorescence is at most 40%.
